Measured values published in ChEMBL document CHEMBL5537185, “Discovery of the First-in-Class RORγ Covalent Inhibitors for Treatment of Castration-Resistant Prostate Cancer” (J Med Chem, 2024).
Values belong to the molecule of their own block, whether it stands above or below them.

Key:
LNCaP C4-2B = assay: Antiproliferative activity against human LNCaP C4-2B cells incubated for 4 days by CCK8 assay; conditions: 96 h
LNCaP = assay: Antiproliferative activity against human LNCaP cells incubated for 4 days by CCK8 assay; conditions: 96 h
CWR22R [1] = assay: Antiproliferative activity against human 22Rv1 cells incubated for 4 days by CCK8 assay; conditions: 22Rv1, 96 h
[2] = molecular target: T1, Nuclear receptor ROR-gamma (Homo sapiens, UniProt P51449); assay: Inhibition of Gal4-fused RORgamma LBD (unknown origin) expressed in HEK293T cells incubated for 48 hrs by luciferase based assay; type: cell-based
T1 sequence (P51449 whole entry): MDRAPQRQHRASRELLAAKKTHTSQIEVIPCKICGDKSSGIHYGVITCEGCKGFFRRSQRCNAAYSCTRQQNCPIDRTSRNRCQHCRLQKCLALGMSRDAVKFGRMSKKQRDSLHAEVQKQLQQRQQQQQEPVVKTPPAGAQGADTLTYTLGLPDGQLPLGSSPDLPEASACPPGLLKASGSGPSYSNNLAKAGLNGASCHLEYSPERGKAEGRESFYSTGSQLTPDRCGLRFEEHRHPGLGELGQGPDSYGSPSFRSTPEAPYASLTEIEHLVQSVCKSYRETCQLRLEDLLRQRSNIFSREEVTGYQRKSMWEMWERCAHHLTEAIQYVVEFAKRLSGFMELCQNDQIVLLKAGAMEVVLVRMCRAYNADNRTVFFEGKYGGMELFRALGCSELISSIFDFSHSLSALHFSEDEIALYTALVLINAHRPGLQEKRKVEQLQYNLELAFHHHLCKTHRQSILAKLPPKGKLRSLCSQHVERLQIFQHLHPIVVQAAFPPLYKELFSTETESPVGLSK

CWR22R [3] = assay: Antitumor activity against human 22Rv1 cells xenografted in NOD/SCID mouse assessed as tumor growth inhibition at 5 mg/kg, ip administered five times a week for 2 weeks and measured two times per week; type: functional; conditions: 22Rv1, 336 h, read-out: TGI

SMILES: CCC(=O)Nc1ccccc1-c1ccc(NC(=O)Cc2ccc(S(=O)(=O)CC)cc2)cc1Cl
- IC50 (LNCaP C4-2B): > 10 µM
- IC50 (LNCaP): > 10 µM
- IC50 (CWR22R [1]): > 10 µM

SMILES: CCS(=O)(=O)c1ccc(CC(=O)Nc2cc(Cl)c(-c3ccccc3OC(F)(F)F)c(Cl)c2)cc1
- inhibition in vivo at 5 mg/kg (CWR22R [3]): 31.1%

SMILES: C=CC(=O)Nc1ccccc1-c1ccc(NC(=O)c2ccc(S(C)(=O)=O)cc2)cc1C
- IC50 [2]: 5.71 µM

Second part, the molecule after the results:

- IC50 [2]: 3.04 µM
SMILES: C=CC(=O)Nc1ccccc1-c1ccc(NC(=O)Cc2ccccc2[N+](=O)[O-])cc1C

- IC50 [2]: 6.19 µM
SMILES: C=CC(=O)Nc1ccccc1-c1ccc(NC(=O)Cc2ccc(S(=O)(=O)CC)cc2)cn1
